Measured values taken from patent US5504097A, “N-hydroxyureas as 5-lipoxygenase inhibitors and inhibitors of oxidative modification of low density lipoprotein” (American Home Products Corporation, priority 1995, dated 1996).

Key:
Lipoxygenase = experiment: Ex-Vivo Measurement of Lipoxygenase Inhibition in Orally Dosed Rats (LTB4 in A23187-stimulated blood); design: species or system Male Sprague Dawley rats; conditions: p.o.
Experimental: 2. Ex-Vivo Measurement of Lipoxygenase Inhibition in Orally Dosed Rats
After an interval of 3 or 6 hours, the rats were anesthetized with metofane (n=4/group) and blood collected in heparinized tubes. White blood cell counts and differentials were made. One ml of blood from each animal was placed in a 5 ml plastic tube in a shaker bath at 37° C. A23187 at a final concentration of 10 μM was added to the blood and the blood vortexed and incubated for 15 min at 37° C. with gentle shaking. Incubation was terminated by vortexing sample and centrifuging immediately at 1200× G for 15 min at 4° C. The plasma was transferred to 15 ml plastic tubes each containing 8 ml of methanol to precipitate protein followed by vortexing. The samples were stored at -70° C. overnight and the next day the samples were centrifuged at 800× G for 15 min to pellet the precipitate. The samples were dried in a Savant SpeedVac Concentrator Model SVC 200H and reconstituted to the original volume with cold RIA or ELISA buffer. The reconstituted samples were stored at -70° C. until assayed. The assay for LTB4 was performed according to the directions of the ^3 H!RIA kit or ELISA kit (Seragen). The total metabolite level in 1 ml of blood is calculated and reported as ng/10^6 neutrophils. Significance is determined by a one-way analysis of variance with LSD comparisons to control (p≤0.05).

LTB4 = experiment: Reverse Passive Arthus Reaction (pleurisy), LTB4 in pleural exudate; assay type: in vivo, male Lewis rats; conditions: p.o.
Experimental: 3. Reverse Passive Arthus Reaction
A reverse passive Arthus reaction is induced in the pleural cavity of male Lewis rats (150-200 g; fasted overnight prior to use) by the intravenous administration of bovine serum albumin (BSA; 4 mg/0.2 ml) followed 30 minutes later by the injection of rabbit anti-BSA (1 mg/2.0 ml; lyophilized IgG fraction; Organon Teknika, West Chester, Pa.) into the right pleural space under halothane anesthesia. Drugs or vehicle (0.5% Tween-80) control are administered orally in a volume of 1 ml/100 g body weight at 1 hour prior to the anti-BSA. Animals are sacrificed at either the time of peak eicosanoid production (i.e. 5 minutes after anti-BSA for immunoreactive T×B2, 10 minutes for immunoreactive LTB4, 20 minutes for immunoreactive LTC4) or at the time of peak neutrophil infiltration (4 hours after anti-BSA) by CO2 inhalation. The pleural cavity is then exposed, the fluid exudate removed by gentle vacuum aspiration and the volume of exudate is recorded. For the determination of cellular infiltration, the pleural cavity is rinsed with 3 ml of 0.1% EDTA in sterile saline, and the recovered wash is pooled with the exudate. Cell number is determined on a model ZBI Coulter counter. For determination of eicosanoid production, undiluted pleural exudate is microfuged and the supernatant is extracted with ethanol (8-10 times volume). Extracts are either stored at -20° C., or are evaporated to dryness under a stream of N2 and reconstituted in radioimmunoassay (RIA) buffer.
Eicosanoids are quantitated by RIA according to the procedure specified by the RIA kit manufacturer (Advanced Magnetics, Cambridge, MA). Briefly, 100 μl of ^3 H-labeled eicosanoid and 100 μl of specific antibody are sequentially added to 100 μl of extracted pleural exudate in BGG-phosphate buffer which contains 0.01M phosphate, 0.1% bovine gamma globulin and 0.1% sodium azide at pH 7.0. Antibody-bound eicosanoid is separated from unbound eicosanoid by the addition of 750 μl of dextran (0.4%)-coated charcoal (Norit A) containing 0.1% sodium azide. The mixture is centrifuged at 2000 RPM at 5° C. for 15 minutes to pellet the charcoal and adsorbed unbound eicosanoid. Antibody-bound labeled eicosanoid is quantitated by counting in a liquid scintillation counter, and is correlated to concentration by a standard curve.

[1] = 5 mg/kg, pretreatment period 6 hr

Cc1oc(-c2ccccc2)nc1COc1ccc(CN(O)C(N)=O)cc1 [Example 1, 1-Hydroxy-1-4-(5-methyl-2-phenyl-oxazol-4-ylmethoxy)-benzyl!-urea]
% Inhibition of LTB4 (Lipoxygenase; 10 mg/kg, pretreatment period 3 hr): 84%
% Inhibition of LTB4 (Lipoxygenase; 10 mg/kg, pretreatment period 6 hr): 75%
% Inhibition of LTB4 Synthesis (LTB4; 10 mg/kg): 36%
% Inhibition of LTB4 Synthesis (LTB4; 25 mg/kg): 69%

Cc1oc(-c2ccc(C(F)(F)F)cc2)nc1COc1ccc(CN(O)C(N)=O)cc1 [Example 6, 1-Hydroxy-1-4-5-methyl-2-(4-trifluoromethyl-phenyl)-oxazol-4-ylmethoxy!-benzyl!-urea]
% Inhibition of LTB4 (Lipoxygenase; [1]): 70%
% Inhibition of LTB4 Synthesis (LTB4; 10 mg/kg): 45%

NC(=O)N(O)Cc1ccc(OCc2coc(-c3ccccc3)n2)cc1 [Example 9, 1-Hydroxy-1-4-(2-phenyl-oxazol-4-ylmethoxy)-benzyl!-urea]
% Inhibition of LTB4 (Lipoxygenase; [1]): 60%
% Inhibition of LTB4 Synthesis (LTB4; 10 mg/kg): 60%

NC(=O)N(O)Cc1ccc(OCc2csc(-c3ccccc3)n2)cc1 [Example 10, 1-Hydroxy-1-4-(2-phenyl-thiazol-4-ylmethoxy)-benzyl!-urea]
% Inhibition of LTB4 (Lipoxygenase; [1]): 67%
% Inhibition of LTB4 Synthesis (LTB4; 10 mg/kg): 99%
